In ChEMBL document CHEMBL1144653, “The thioesterase domain from the pimaricin and erythromycin biosynthetic pathways can catalyze hydrolysis of simple thioester substrates” (Bioorg Med Chem Lett, 2007):

Experiments:
[1] = test system: Saccharopolyspora erythraea; experiment: Ratio of Kcat to Km in 6-deoxyerythronolide B polyketide synthase thioesterase expressed in Escherichia coli
Streptomyces natalensis = experiment: Ratio of Kcat to Km in pimaricin thioesterase expressed in Escherichia coli

| SMILES | kcat/Km [1] [M⁻¹ s⁻¹] | kcat/Km (Streptomyces natalensis) [M⁻¹ s⁻¹] |
| --- | --- | --- |
| CCC(=O)C(C)C(=O)SCCNC(C)=O (stereo not drawn) | 4.2 | – |
| CC/C=C(\C)C(=O)SCCNC(C)=O | – | 1.3 |
| CCCC(C)C(=O)SCCNC(C)=O (stereo not drawn) | 0.17 | 0.24 |
| CC[C@@H](O)[C@H](C)C(=O)SCCNC(C)=O | 0.47 | 0.04 |
| CC[C@H](O)[C@@H](C)C(=O)SCCNC(C)=O | 3.6 | 0.02 |
